Data reported in ChEMBL document CHEMBL5608197, “Optimization of pyrazolopyridine 4-carboxamides with potent antimalarial activity for which resistance is associated with the P. falciparum transporter ABCI3” (Eur J Med Chem, 2024).
Values after ≈ are worked out from the molar mass of the structure shown. Active and inactive are the calls of the source. No cut-off for these calls is given here.

Columns and labels:
[1] = molecular target: T1, CYP1A2 (Homo sapiens, UniProt P05177); test: Inhibition of CYP1A2 (unknown origin) at 10 uM relative to control; type: ADME
T1 sequence (P05177 whole entry): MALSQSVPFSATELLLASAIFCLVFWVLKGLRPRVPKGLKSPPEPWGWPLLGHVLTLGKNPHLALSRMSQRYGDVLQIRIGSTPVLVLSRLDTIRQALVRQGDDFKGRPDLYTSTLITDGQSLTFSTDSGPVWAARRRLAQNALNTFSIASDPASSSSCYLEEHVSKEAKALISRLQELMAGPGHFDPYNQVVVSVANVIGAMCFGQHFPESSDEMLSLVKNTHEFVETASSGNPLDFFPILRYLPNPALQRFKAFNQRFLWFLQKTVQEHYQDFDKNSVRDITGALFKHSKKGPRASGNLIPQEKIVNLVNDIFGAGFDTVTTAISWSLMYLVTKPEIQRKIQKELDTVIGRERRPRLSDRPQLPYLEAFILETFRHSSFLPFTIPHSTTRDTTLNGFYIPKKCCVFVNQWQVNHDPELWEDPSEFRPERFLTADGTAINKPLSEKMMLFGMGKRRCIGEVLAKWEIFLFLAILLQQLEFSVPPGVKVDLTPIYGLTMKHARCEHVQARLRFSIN

[2] = molecular target: T2, CYP2D6 (Homo sapiens, UniProt P10635); test: Inhibition of CYP2D6 (unknown origin) at 1 uM relative to control; type: ADME
[3] = Permeability of the compound across basolateral to apical side in human Caco-2 cells at pH 7.4; type: ADME, cell-based; conditions: Caco-2, pH 7.4, read-out: permeability
[4] = system: Plasmodium falciparum; test: Antiplasmodial activity against asexual blood stage of Plasmodium falciparum 3D7 assessed as inhibition of parasite growth incubated for 72 hrs by LDH assay; type: functional, organism-based; conditions: 3D7, 72 h
[5] = system: Plasmodium falciparum; test: Antiplasmodial activity against ring stage of Plasmodium falciparum 3D7 expressing ABCI3-HAreg assessed as inhibition of parasite proliferation incubated for 72 hrs in absence of ABCI3 inhibitor, GlcN by SYBR dye based flow cytometry; type: functional, organism-based; conditions: 3D7, 72 h
[6] = system: Plasmodium falciparum; test: Antimalarial activity against asexual stage of Plasmodium falciparum 3D7 infected in erythrocytes assessed as lag phase of parasite growth at 10XEC50 incubated for 24 hrs followed by drug removal and incubation for 48 hrs with CFDA-SE labelled fresh erythrocytes by Hoechst 33342 staining based two-color flow cytometry; type: functional, organism-based; conditions: Erythrocyte
[7] = Aqueous solubility of the compound in PBS buffer at pH 7.4 at 200 uM incubated for 2 hrs under shaking condition by miniaturized shake flask method; type: physicochemical
[8] = molecular target: T2, CYP2D6; test: Inhibition of CYP2D6 (unknown origin) at 10 uM relative to control; type: ADME
[9] = Permeability of the compound across apical to basolateral side in human Caco-2 cells at pH 7.4; type: ADME, cell-based; conditions: Caco-2, pH 7.4, read-out: permeability
[10] = system: Plasmodium falciparum; test: Antiplasmodial activity against drug-resistant recrudescent Plasmodium falciparum Dd2-B2 in 2x10^5 bulk culture selection assessed as inhibition of parasite growth incubated for 72 hrs by flow cytometry; type: functional, organism-based
[11] = system: Plasmodium falciparum; test: Antiplasmodial activity against multidrug-resistant Plasmodium falciparum 7G8 infected in erythrocytes assessed as inhibition of parasite growth incubated for 72 hrs by [3H]hypoxanthine incorporation based microbeta counting analysis; type: functional, organism-based; conditions: 7G8, Erythrocyte
[12] = system: Plasmodium falciparum; test: Resistance ratio of EC90 for antiplasmodial activity against drug-resistant recrudescent Plasmodium falciparum Dd2-B2 in 2x10^7 bulk culture selection measured on day 15 under initial selection drug pressure concentration of 3XEC50 to EC90 for antiplasmodial activity against Plasmodium flaciparum Dd2 measured after 72 hrs; type: functional
[13] = molecular target: CYP2C19 (Homo sapiens, UniProt P33261); test: Inhibition of CYP2C19 (unknown origin) at 1 uM relative to control; type: ADME
[14] = system: Plasmodium falciparum; test: Antiplasmodial activity against multidrug-resistant Plasmodium falciparum Cam3.1 infected in erythrocytes assessed as inhibition of parasite growth incubated for 72 hrs by [3H]hypoxanthine incorporation based microbeta counting analysis; type: functional, organism-based; conditions: Cam3.1, Erythrocyte
[15] = system: Plasmodium falciparum; test: Antiplasmodial activity against multidrug-resistant Plasmodium falciparum K1 infected in erythrocytes assessed as inhibition of parasite growth incubated for 72 hrs by [3H]hypoxanthine incorporation based microbeta counting analysis; type: functional, organism-based; conditions: K1, Erythrocyte
[16] = system: Plasmodium falciparum; test: Antiplasmodial activity against multidrug-resistant Plasmodium falciparum Dd2 harboring DHODH-C276F mutant infected in erythrocytes assessed as inhibition of parasite growth incubated for 72 hrs by [3H]hypoxanthine incorporation based microbeta counting analysis; type: functional, organism-based; conditions: Dd2, Erythrocyte

T2 sequence (P10635 whole entry): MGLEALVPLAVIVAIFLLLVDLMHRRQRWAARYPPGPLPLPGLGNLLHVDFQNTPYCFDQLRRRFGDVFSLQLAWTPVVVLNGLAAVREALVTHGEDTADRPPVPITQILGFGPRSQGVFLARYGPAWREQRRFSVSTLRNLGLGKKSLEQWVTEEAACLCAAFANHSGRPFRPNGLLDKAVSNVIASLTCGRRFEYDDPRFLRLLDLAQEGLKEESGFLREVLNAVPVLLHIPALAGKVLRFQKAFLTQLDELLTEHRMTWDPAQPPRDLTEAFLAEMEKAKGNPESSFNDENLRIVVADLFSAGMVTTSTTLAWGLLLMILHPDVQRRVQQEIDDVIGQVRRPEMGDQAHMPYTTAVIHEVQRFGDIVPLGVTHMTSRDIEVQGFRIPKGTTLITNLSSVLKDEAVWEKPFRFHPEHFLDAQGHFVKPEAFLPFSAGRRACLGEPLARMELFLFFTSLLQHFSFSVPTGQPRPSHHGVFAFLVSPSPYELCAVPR
Sequence of CYP2C19 (P33261 whole entry): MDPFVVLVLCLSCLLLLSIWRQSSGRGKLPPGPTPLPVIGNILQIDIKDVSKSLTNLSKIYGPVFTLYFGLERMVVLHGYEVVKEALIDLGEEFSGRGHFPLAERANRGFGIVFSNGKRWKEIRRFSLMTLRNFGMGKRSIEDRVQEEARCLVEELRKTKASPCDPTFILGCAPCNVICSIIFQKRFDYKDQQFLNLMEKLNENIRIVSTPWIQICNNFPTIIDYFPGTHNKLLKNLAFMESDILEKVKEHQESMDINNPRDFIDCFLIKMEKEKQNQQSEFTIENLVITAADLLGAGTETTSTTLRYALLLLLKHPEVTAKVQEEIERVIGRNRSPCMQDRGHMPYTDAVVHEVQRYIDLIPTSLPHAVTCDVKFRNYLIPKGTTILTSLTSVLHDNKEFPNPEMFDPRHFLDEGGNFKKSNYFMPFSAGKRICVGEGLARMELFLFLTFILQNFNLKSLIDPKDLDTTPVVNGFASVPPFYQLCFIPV

`Cc1nn(C(C)(C)C)c2nc(C3CC3)cc(C(=O)N3CCOc4ccncc43)c12` showed an inhibition at 10 µM [1] of 55.1%, an inhibition at 1 µM [2] of 43.8% and a Papp B→A [3] of 23.7 ×10⁻⁶ cm/s. For the same molecule, the EC50 [4] was 16 nM, the EC50 [5] was 2.7 nM and the Activity [6] was “Active”. For the same molecule, the solubility thermodynamic at 2 h, 200 µM [7] was 69 µM (≈ 27 µg/mL), the inhibition at 10 µM [8] was 86.4% and the Papp A→B [9] was 17.1 ×10⁻⁶ cm/s. For the same molecule, the EC50 ([10]; Dd2-B2, 72 h) was 28.3 nM, the EC90 ([10]; Dd2-B2, time 72 hrs) was 68.3 nM and the EC50 [11] was 8 nM. The Ratio [12] was 5, the inhibition at 1 µM [13] was 3.6% and the EC50 [14] was 6 nM. The EC50 [15] was 9 nM and the EC50 [16] was 7 nM.
